Laboratory results from BindingDB's records for patent US11680056 (Xinthera, 2023).
“And” between values parts separate entries of the source, which are not always exact repeats. Equal values may be shown once.

What follows are compounds tested against T1, MAP kinase-activated protein kinase 2 [46-400] (Homo sapiens, UniProt P49137) (assay: Biochemical Assay).
T1 construct: 46-400
T1 sequence (P49137 46-400): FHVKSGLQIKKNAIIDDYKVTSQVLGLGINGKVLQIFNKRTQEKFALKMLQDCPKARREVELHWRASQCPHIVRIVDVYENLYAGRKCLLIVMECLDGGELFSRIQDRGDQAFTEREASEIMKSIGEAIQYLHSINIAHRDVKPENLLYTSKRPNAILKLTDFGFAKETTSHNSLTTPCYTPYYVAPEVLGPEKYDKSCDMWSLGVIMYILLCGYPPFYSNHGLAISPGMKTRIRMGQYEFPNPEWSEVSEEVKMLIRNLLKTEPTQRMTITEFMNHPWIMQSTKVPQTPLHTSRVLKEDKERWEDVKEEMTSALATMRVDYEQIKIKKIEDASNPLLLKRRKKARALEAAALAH
Procedure: This study evaluates the inhibitory potency of invention compound on p38/MK2 pathway vs p38/PRAK pathway. More specially the compound concentration (IC50) was determined that inhibited half of the maximal activation of MK2 or PRAK by p38. MK2 activation study was set up without or with a serial of 10-point 1:3 dilution of invention compound at top dose of […], and PRAK activation study was set up without or with a serial of 10-point 1:3 dilution of invention compound at top dose of 300 μM. The MK2 and PRAK activity were determined by the phosphorylation level of HSP27 peptide conjugated with FITC. […] After 2 h incubation of the reaction mixture with various concentration of invention compound (200 nL), 60 μL 1×IMAP solution Mixture (Molecular Devices, Cat R8127) was added to the reaction mixture and incubated for another half hour. The signal was then read by Synergy Neo2 Multi-Mode Microplate Reader with filter setting (Ex/Em=485 nm/FITC FP-P pol 528 nm & FITC FP-S pol 528 nm). The signal was then normalized to vehicle control and fitted in Xfit to generate IC50. The selectivity of MK2 over PRAK was calculated by the formular Selectivity=IC50 of PRAK/IC50 of MK2.
With `Cc1cnc(-n2nc(C(C)(C)O)cc2C2CC2)cc1-n1c(C)cc(OCc2ncc(F)cc2F)c(Cl)c1=O` [US11680056, Example 20A] the IC50 was 2000 nM and > 10000 nM.
With `Cc1cnnc(COc2cc(C)n(-c3cc(-c4ccnc(C(C)(C)O)n4)ncc3C)c(=O)c2Cl)c1` [US11680056, Example 28A] the IC50 was > 10000 nM.
Compound `Cc1nn(-c2ccnc(C(C)(C)O)n2)cc1-n1c(C)cc(OCc2ncc(F)cc2F)c(Cl)c1=O` [US11680056, Example 30] has an IC50 of 631 nM.
